# Experiments:
# Isocitrate lyase = biological target: T1, Isocitrate lyase (Mycobacterium tuberculosis, UniProt P9WKK7); assay: Inhibition of Mycobacterium tuberculosis recombinant isocitrate lyase expressed in Escherichia coli BL21 (DE3) using isocitrate as substrate after 10 mins by spectrometric analysis
# T1 sequence (P9WKK7 whole entry): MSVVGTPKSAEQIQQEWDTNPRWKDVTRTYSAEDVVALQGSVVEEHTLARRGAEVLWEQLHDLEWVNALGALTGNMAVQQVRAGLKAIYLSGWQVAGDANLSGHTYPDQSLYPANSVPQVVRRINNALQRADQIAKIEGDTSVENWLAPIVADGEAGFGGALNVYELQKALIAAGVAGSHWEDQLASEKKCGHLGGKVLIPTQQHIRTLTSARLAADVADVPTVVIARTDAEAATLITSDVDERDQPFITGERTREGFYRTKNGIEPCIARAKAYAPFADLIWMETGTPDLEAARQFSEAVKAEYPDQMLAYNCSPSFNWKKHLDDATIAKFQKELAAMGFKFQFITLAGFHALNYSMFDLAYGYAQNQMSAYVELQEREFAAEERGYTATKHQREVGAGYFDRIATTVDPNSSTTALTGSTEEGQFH
# [1] = biological target: T2, Isocitrate lyase (Mycobacterium tuberculosis) (UniProt P9WKK7); assay: Inhibition of Mycobacterium tuberculosis recombinant isocitrate lyase expressed in Escherichia coli BL21 (DE3) using isocitrate as substrate at 1 mg/mL by spectrometric analysis relative to control
# T2 sequence (whole entry): T1 sequence (P9WKK7 whole entry)
Compound,IC50 (Isocitrate lyase) [µM],inhibition [1] [%]
O=C(O)CC[N+](=O)[O-],50.7,
H-HISHLML-OH,192,51
H-HYSSHMR-OH [listing 1 of 2 here],126,
H-HYSSHMR-OH [listing 2 of 2 here],,72
H-LTLGPLL-OH,208,55
H-LTQHLTA-OH,214,56
H-LYALATM-OH,204,52
H-NPPERSP-OH,142,73
H-NSSSLAQ-OH,190,62
H-QKASPGA-OH,172,73
H-SARVTSR-OH [listing 1 of 2 here],166,
H-SARVTSR-OH [listing 2 of 2 here],,65
H-TELSLPS-OH,182,61
H-TMHLSPY-OH,156,63
H-VTSLKAT-OH,228,51

# Source: ChEMBL document CHEMBL2424581, “Optimization of phage heptapeptide library-screening process for developing inhibitors of the isocitrate lyase homologue from Mycobacterium tuberculosis” (Med Chem Res, 2013)
